These are literature values, as cited in paper PMC8198792, “Prediction of Anticancer Peptides with High Efficacy and Low Toxicity by Hybrid Model Based on 3D Structure of Peptides” (International Journal of Molecular Sciences, 2021).

Read-outs that look alike come from different tables or passages of the source.

One data set has as its system cancer cell lines. Further details: method as in 6 sources, ref CancerPPD [45] and SATPdb ||| ref CancerPPD/SATPdb ||| ref CancerPPD, SATPdb, Swissprot (PDB) ||| ref CancerPPD/SATPdb/Swissprot(PDB) ||| ref CancerPPD / SATPdb ||| ... The settings on record: cited from earlier work. The source says: Supplement ijms-22-05630-s001.zip/ACPs(seguence).xlsx, sheet "D1" | column: Activity || Supplement ijms-22-05630-s001.zip/ACPs(seguence).xlsx, sheet "D2" | column: Activity || Supplement ijms-22-05630-s001.zip/ACPs(seguence).xlsx, sheet "D3" | column: Activity || (+ 2 further places)

For data set [1], the system named is many types of cells, including non-cancer cells. The settings on record: cited from earlier work; for Activity: toxic peptides dataset TD2, class label 1 (toxic, positive set) or 0 (non-toxic AMP, negative set), ref SATPdb.
Setting [2] is: ACPs dataset D3 (sheet "D3"), label 1 = ACP, 0 = non-ACP, ref CancerPPD/SATPdb.
The mark [3] stands for this setting: ACPs dataset D4 (sheet "D4"), label 1 = ACP, 0 = non-ACP, ref CancerPPD / SATPdb.
The mark [4] stands for this setting: ACPs dataset D5, sheet "D5", label 1 = ACP, 0 = non-ACP, ref CancerPPD [45] and SATPdb.
Setting [5] is: ACPs dataset D3 (supplement sheet "D3"), 1 = ACP, 0 = non-ACP, ref CancerPPD [45] and SATPdb.

As for GLLDALSGILGL [satpdb12939], the Activity (in the data set on cancer cell lines (setting [2]); in the data set with cancer cell lines (setting [3]); in the data set with cancer cell lines (setting [4]); in data set [1]) was 0 each time.

Consider GLLGTLGNLLNGLGL [satpdb12279], for which the Activity (in the data set with cancer cell lines (setting [2]); with cancer cell lines (setting [3]); with cancer cell lines (setting [4]); in data set [1]) was 0 in each case.

Regarding GLLSGILNTAGGLLGNLIGSLSN [satpdb13955], the Activity (in the data set with cancer cell lines (setting [2]); in the data set with cancer cell lines (setting [3]); with cancer cell lines (setting [4]); in data set [1]) was 0 each time.

For GLWEKIKEKANELVSGIVEGVK [satpdb12905], the Activity (in the data set with cancer cell lines (setting [2]); with cancer cell lines (setting [3]); in the data set with cancer cell lines (setting [4]); in data set [1]) was 0 throughout.

Consider GLWSKIKDVAAAAGKAALGAVNEAL [satpdb12483], for which the Activity (with cancer cell lines (setting [2]); in the data set on cancer cell lines (setting [3]); in the data set with cancer cell lines (setting [4]); in data set [1]) was 0 each time.

For the sequence “GLWSNIKTAGKEAAKAALKAAGKAALGAVTDAV [satpdb12078]”, the Activity (in the data set with cancer cell lines (setting [2]); with cancer cell lines (setting [3]); in the data set with cancer cell lines (setting [4]); in data set [1]) was 0 each time.

With “GLWSTIKQKGKEAAIAAAKAAGQAVLNSASEAL [satpdb11971]”, the Activity (in the data set with cancer cell lines (setting [2]); in the data set with cancer cell lines (setting [3]); in the data set on cancer cell lines (setting [4]); in data set [1]) was 0 in each case.

In the case of GMASKAGSVLGKVAKVALKAAL [satpdb13618], the Activity (in the data set with cancer cell lines (setting [2]); in the data set with cancer cell lines (setting [3]); with cancer cell lines (setting [4]); in data set [1]) was 0 throughout.

For the sequence “GMFTNMLKGIGKLAGQAALGAVKTLA [satpdb11616]”, the Activity (with cancer cell lines (setting [5]); in the data set on cancer cell lines (setting [3]); with cancer cell lines (setting [4]); in data set [1]) was 0 in each case.

As for GRLQAFLAKMKEIAAQTL [satpdb13649], the Activity (with cancer cell lines (setting [2]); in the data set on cancer cell lines (setting [3]); in the data set on cancer cell lines (setting [4]); in data set [1]) was 0 each time.

On to GVLSAFKNALPGIMKIIV [satpdb14593], for which the Activity (in the data set on cancer cell lines (setting [2]); with cancer cell lines (setting [3]); with cancer cell lines (setting [4]); in data set [1]) was 0 in each case.

Regarding GVVTDLLKTAGKLLGNLFGSLSG [satpdb14110], the Activity is given as 0 in the data set on cancer cell lines (setting [2]), 0 with cancer cell lines (setting [3]), 0 in the data set on cancer cell lines (setting [4]) and 1 in data set [1].

Take “GVWDWLKKTAKNVWNSDIVKQLKGKAINAAKNYVAEKIGATPS [satpdb11887]”: the Activity (in the data set on cancer cell lines (setting [5]); with cancer cell lines (setting [3]); in the data set with cancer cell lines (setting [4]); in data set [1]) was 0 in each case.

Regarding GWRLLLKKAEVKTVGKLALKHYL [satpdb14772], the Activity (in the data set on cancer cell lines (setting [2]); with cancer cell lines (setting [3]); in the data set with cancer cell lines (setting [4]); in data set [1]) was 0 in each case.

On to HFLGTLVNLAKKIL [satpdb13929], for which the Activity in the data set with cancer cell lines (setting [2]) is 0; in the data set on cancer cell lines (setting [3]), 0; with cancer cell lines (setting [4]), 0; in data set [1], 1.

Turning to ILGAILPLVSGLLSNKL [satpdb12884], the Activity (in the data set on cancer cell lines (setting [2]); with cancer cell lines (setting [3]); in the data set on cancer cell lines (setting [4]); in data set [1]) was 0 in each case.

As to ILGPVIKTIGGVIGGLLKNL [satpdb10308], the Activity in the data set on cancer cell lines (setting [5]) is recorded as 0; with cancer cell lines (setting [3]) it was 0; in the data set with cancer cell lines (setting [4]), 0; in data set [1], 1.

With ILGPVLGLVGNALGGLIKKL [satpdb12428], the Activity was 0 in the data set with cancer cell lines (setting [2]), 0 in the data set on cancer cell lines (setting [3]), 0 with cancer cell lines (setting [4]) and 1 in data set [1].

Regarding ILPFLAGLFSKIL [satpdb10916], the Activity (in the data set on cancer cell lines (setting [5]); in the data set with cancer cell lines (setting [3]); with cancer cell lines (setting [4]); in data set [1]) was 0 in each case.

Regarding ILPILGNLLNGLL [satpdb12015], the Activity in the data set on cancer cell lines (setting [2]) is reported as 0; in the data set on cancer cell lines (setting [3]), 0; in the data set with cancer cell lines (setting [4]) it was 0; in data set [1] it was 1.

Consider ILPLVGNLLNDLL [satpdb10023], for which the Activity (in the data set with cancer cell lines (setting [5]); in the data set on cancer cell lines (setting [3]); in the data set with cancer cell lines (setting [4]); in data set [1]) was 0 each time.

As for “ILQKAVLDCLKAAGSSLSKAAITAIYNKIT [satpdb12333]”, the Activity (in the data set on cancer cell lines (setting [2]); with cancer cell lines (setting [3]); in the data set on cancer cell lines (setting [4]); in data set [1]) was 0 in each case.

Regarding IWSAIWSGIKGLL [satpdb12218], the Activity (in the data set with cancer cell lines (setting [2]); in the data set on cancer cell lines (setting [3]); in the data set on cancer cell lines (setting [4]); in data set [1]) was 0 throughout.

As to “KCNTATCATQRLANFLVHSSNNFGAILSSTNVGSNTY [satpdb11357]”, the Activity (in the data set on cancer cell lines (setting [5]); with cancer cell lines (setting [3]); in the data set with cancer cell lines (setting [4]); in data set [1]) was 0 in each case.

Turning to “KFGKIVGKVLKQLKKVSAVAKVAMKKG [satpdb11425]”, the Activity with cancer cell lines (setting [5]) is given as 0; in the data set on cancer cell lines (setting [3]) it was 0; with cancer cell lines (setting [4]) it was 0; in data set [1], 1.

Take KLGFENFLVKALKTVMHVPTSPLL [satpdb10107]: the Activity in the data set with cancer cell lines (setting [5]) was 0; with cancer cell lines (setting [3]) it was 0; in the data set on cancer cell lines (setting [4]), 0; in data set [1], 1.

Take “KWKSFIKKLTSAAKKVVTTAKPLISS [satpdb10912]”: the Activity (in the data set on cancer cell lines (setting [5]); in the data set with cancer cell lines (setting [3]); with cancer cell lines (setting [4]); in data set [1]) was 0 throughout.

As for “KWKVFKKIEKMGRNIRNGIVKAGPAIAVLGEAKAILS [satpdb11163]”, the Activity (with cancer cell lines (setting [5]); with cancer cell lines (setting [3]); with cancer cell lines (setting [4]); in data set [1]) was 0 each time.

LIGPVLGLVGSALGGLLKKI [satpdb10453]: the Activity with cancer cell lines (setting [5]) is given as 0; with cancer cell lines (setting [3]), 0; in the data set on cancer cell lines (setting [4]), 0; in data set [1], 1.

Regarding LLSLVPHAINAVSAIAKHF [satpdb10338], the Activity (in the data set with cancer cell lines (setting [5]); in the data set with cancer cell lines (setting [3]); in the data set on cancer cell lines (setting [4]); in data set [1]) was 0 each time.

Take LRPAILVRIK [satpdb13588]: the Activity (in the data set on cancer cell lines (setting [2]); in the data set on cancer cell lines (setting [3]); in the data set with cancer cell lines (setting [4]); in data set [1]) was 0 each time.

In the case of LSPNLLKSLL [satpdb13883], the Activity (with cancer cell lines (setting [2]); in the data set with cancer cell lines (setting [3]); with cancer cell lines (setting [4]); in data set [1]) was 0 in each case.

On to NLLGSLLKTGLKVGSNLL [satpdb11204], for which the Activity with cancer cell lines (setting [5]) was 0; in the data set with cancer cell lines (setting [3]), 0; with cancer cell lines (setting [4]), 0; in data set [1] it was 1.

Regarding “RADTQTYQPYNKDWIKEKIYVLLRRQAQQAGK [satpdb14189]”, the Activity (with cancer cell lines (setting [2]); in the data set with cancer cell lines (setting [3]); in the data set with cancer cell lines (setting [4]); in data set [1]) was 0 in each case.

On to RGGRLCYCRPRFCVCVGR [satpdb12800], for which the Activity (in the data set on cancer cell lines (setting [2]); in the data set with cancer cell lines (setting [3]); in the data set on cancer cell lines (setting [4]); in data set [1]) was 0 each time.

Take RGGRLCYCRRRFCICV [satpdb14720]: the Activity (in the data set on cancer cell lines (setting [2]); in the data set on cancer cell lines (setting [3]); with cancer cell lines (setting [4]); in data set [1]) was 0 in each case.

Consider “RWKIFKKIEKVGRNVRDGIIKAGPAVAVVGQAATVVK [satpdb12319]”, for which the Activity (in the data set with cancer cell lines (setting [2]); in the data set with cancer cell lines (setting [3]); in the data set with cancer cell lines (setting [4]); in data set [1]) was 0 throughout.

Consider SILPTIVSFLTKFL [satpdb10195], for which the Activity (in the data set with cancer cell lines (setting [5]); with cancer cell lines (setting [3]); in the data set on cancer cell lines (setting [4]); in data set [1]) was 0 throughout.

“VGKVLKQLKKVSAVAKVAMKKGAALLK [satpdb11069]”: the Activity is 0 in the data set on cancer cell lines (setting [5]), 0 in the data set on cancer cell lines (setting [3]), 0 in the data set with cancer cell lines (setting [4]) and 1 in data set [1].

Regarding “VIPFVASVAAEMMQHVYCAASKKC [satpdb10043, toxic peptide, datasets TD1 and TD3]”, the Activity in the data set with cancer cell lines (ACPs dataset D1, 1 = ACP (positive), 0 = non-ACP (negative), label taken from databases, ref CancerPPD [45] and SATPdb) is reported as 0; with cancer cell lines (ACPs dataset D4 (sheet "D4"), label 1 = ACP (CancerPPD ID), 0 = non-ACP (non-anticancer AMP, SATPdb ID), ref CancerPPD [45] and SATPdb), 0. Moreover, in data set [1] (natural toxic peptide dataset TD1, label collected from database, ref SATPdb [34]), the “Activity (dataset TD1, toxic 1 / non-toxic 0)” value was 1.

Regarding VIPIVSGLLSSLL [satpdb12918], the Activity (in the data set on cancer cell lines (setting [2]); with cancer cell lines (setting [3]); with cancer cell lines (setting [4]); in data set [1]) was 0 each time.
